Results: ChEMBL document CHEMBL1132232, “7alpha-Iodo and 7alpha-fluoro steroids as androgen receptor-mediated imaging agents” (J Med Chem, 1999)

Target: T1, Androgen receptor (Homo sapiens) (UniProt P10275)
T1 sequence (whole entry): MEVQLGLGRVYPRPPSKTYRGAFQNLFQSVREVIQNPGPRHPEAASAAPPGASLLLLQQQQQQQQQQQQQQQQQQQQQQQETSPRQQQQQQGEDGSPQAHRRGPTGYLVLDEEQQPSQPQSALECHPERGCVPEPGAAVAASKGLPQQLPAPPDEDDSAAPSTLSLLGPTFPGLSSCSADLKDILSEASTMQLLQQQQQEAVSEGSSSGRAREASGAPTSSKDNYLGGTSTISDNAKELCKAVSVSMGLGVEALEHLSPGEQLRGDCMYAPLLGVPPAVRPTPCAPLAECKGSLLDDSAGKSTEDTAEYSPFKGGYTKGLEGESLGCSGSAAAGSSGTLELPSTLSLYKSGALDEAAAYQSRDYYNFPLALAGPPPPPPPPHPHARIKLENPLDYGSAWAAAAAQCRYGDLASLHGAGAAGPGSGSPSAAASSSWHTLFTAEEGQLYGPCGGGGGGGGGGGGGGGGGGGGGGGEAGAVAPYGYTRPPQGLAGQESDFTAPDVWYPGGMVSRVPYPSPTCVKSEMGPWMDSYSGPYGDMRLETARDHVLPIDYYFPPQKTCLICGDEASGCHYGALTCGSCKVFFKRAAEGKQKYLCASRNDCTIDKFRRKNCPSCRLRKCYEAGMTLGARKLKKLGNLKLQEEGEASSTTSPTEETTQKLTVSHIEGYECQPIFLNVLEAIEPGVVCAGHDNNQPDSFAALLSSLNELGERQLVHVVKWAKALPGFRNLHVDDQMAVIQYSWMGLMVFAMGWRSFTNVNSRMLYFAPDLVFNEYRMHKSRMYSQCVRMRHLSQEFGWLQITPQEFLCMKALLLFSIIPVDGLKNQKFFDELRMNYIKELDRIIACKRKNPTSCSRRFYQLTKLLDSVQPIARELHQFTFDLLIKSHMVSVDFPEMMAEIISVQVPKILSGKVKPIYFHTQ
Conditions: CV-1
Description: Relative stimulatory activity compared to 5-alpha-DHT in CV-1 cells expressing androgen receptor

For `CC12CC[C@@H]3C4CCC(=O)CC4C[C@@H](F)[C@H]3[C@@H]1CC[C@]2(C)O` (stereo partly specified), which RSA is on record?
Its RSA is 16.
